How the values were obtained:
Brain [1] = assay: In vivo binding affinity to amyloid beta 42 in mouse brain by neuropathological staining; assay type: ADME, organism-based
[2] = Displacement of [125I]IMPY from amyloid beta42 by gamma counting
Brain [3] = assay: In vivo binding affinity to amyloid beta 42 in Tg2576 mouse brain by neuropathological staining; assay type: ADME, organism-based

SMILES	Activity (Brain [1])	Ki [2]	Activity (Brain [3])
CN(C)c1ccc(-c2cc3cc(I)ccc3[nH]2)cc1	Not Active	4.24 nM	–
COc1ccc(-c2cc3cc(I)ccc3[nH]2)cc1	–	20.2 nM	Active
Oc1ccc(-c2cc3cc(I)ccc3[nH]2)cc1	–	32.9 nM	–
OCCOc1ccc(-c2cc3cc(I)ccc3[nH]2)cc1	–	25.9 nM	–
CN(C)c1ccc(-n2ccc3cc(I)ccc32)cc1	–	> 10000 nM	–
